Experiments:
Experiment in all cases: combination Emax (second highest fraction inhibited in the dose matrix, 72 h); higher = more inhibition; extreme values may be limits of the assay
[1] = test system: OVCAR-3 (Ovarian Carcinoma)
Method in brief: (§1)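 Cell lines in DMEM/F12 or RPMI with 10% FBS were plated in 1536-well plates, held 24 hours at 37°C, 5% CO2, then given two-drug dose matrices for 72 hours (DMSO typically 0.2%). Viability was read by CellTiter-Glo 2.0 luminescence and scaled as inhibition from 0 (vehicle wells) to 1 (blank wells). Combination Emax is the second-highest inhibition in the matrix; Bliss excess is observed combination effect minus expected EA + EB − EA·EB, EA and EB being single-agent effects.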

[2] = test system: LS-1034 (Colorectal Carcinoma)
Method in brief: as §1

[3] = test system: OAW-28 (Ovarian Carcinoma)
Method in brief: as §1

[4] = test system: SCC-4 (Oral Cavity Carcinoma)
Method in brief: as §1

ES6 (Ewing's Sarcoma) = test system: ES6 (Ewing's Sarcoma)
Method in brief: as §1

[5] = test system: T84 (Colorectal Carcinoma)
Method in brief: as §1

[6] = test system: P32-ISH (Burkitt's Lymphoma)
Method in brief: as §1

[7] = test system: TUR (Acute Myeloid Leukemia)
Method in brief: as §1

NCI-H2373 (Mesothelioma) = test system: NCI-H2373 (Mesothelioma)
Method in brief: as §1

[8] = test system: IA-LM (Non-Small Cell Lung Carcinoma)
Method in brief: as §1

[9] = test system: BxPC-3 (Pancreatic Carcinoma)
Method in brief: as §1

T47D (Breast Carcinoma) = test system: T47D (Breast Carcinoma)
Method in brief: as §1

[10] = test system: SNU-407 (Colorectal Carcinoma)
Method in brief: as §1

[11] = test system: MONO-MAC-6 (Acute Myeloid Leukemia)
Method in brief: as §1

SK-N-SH (Neuroblastoma) = test system: SK-N-SH (Neuroblastoma)
Method in brief: as §1

[12] = test system: SUP-M2 (T-Cell Non-Hodgkin's Lymphoma)
Method in brief: as §1

[13] = test system: NCI-H596 (Other Solid Carcinomas)
Method in brief: as §1

[14] = test system: DBTRG-05MG (Glioblastoma)
Method in brief: as §1

[15] = test system: BHT-101 (Thyroid Gland Carcinoma)
Method in brief: as §1

[16] = test system: CPC-N (Small Cell Lung Carcinoma)
Method in brief: as §1

Row | Compound | combination Emax [1] | combination Emax [2] | combination Emax [3] | combination Emax [4] | combination Emax (ES6 (Ewing's Sarcoma)) | combination Emax [5] | combination Emax [6] | combination Emax [7] | combination Emax (NCI-H2373 (Mesothelioma)) | combination Emax [8] | combination Emax [9] | combination Emax (T47D (Breast Carcinoma)) | combination Emax [10] | combination Emax [11] | combination Emax (SK-N-SH (Neuroblastoma)) | combination Emax [12] | combination Emax [13] | combination Emax [14] | combination Emax [15] | combination Emax [16]
1 | NC1(C(=O)N[C@@H](CCO)c2ccc(Cl)cc2)CCN(c2ncnc3[nH]ccc23)CC1 [Capivasertib] + CC(C)n1c(=O)n(C)c2cnc3cc(F)c(-c4ccc(OCCCN5CCCCC5)nc4)cc3c21 [AZD1390] (first compound max 10 µM, 7x7, partner max 0.3 µM) | 0.227 | 0.322 | 0.119 | 0.227 | 0.349 | 0.367 | 0.557 | 0.809 | 0.545 | 0.263 | 0.181 | 0.37 | 0.503 | 0.594 | 0.349 | 0.19 | 0.542 | 0.243 | 0.341 | 0.399
2 | NC1(C(=O)N[C@@H](CCO)c2ccc(Cl)cc2)CCN(c2ncnc3[nH]ccc23)CC1 [Capivasertib] + CCN(CCO)CCCOc1ccc2c(Nc3cc(CC(=O)Nc4cccc(F)c4)[nH]n3)ncnc2c1 [AZD2811] (first compound max 10 µM, 7x7, partner max 1 µM) | 0.344 | 0.302 | 0.249 | 0.333 | 0.418 | 0.389 | 0.951 | 0.912 | 0.491 | 0.304 | 0.241 | 0.456 | 0.714 | 0.817 | 0.476 | 0.992 | 0.564 | 0.317 | 0.353 | 0.781
3 | NC1(C(=O)N[C@@H](CCO)c2ccc(Cl)cc2)CCN(c2ncnc3[nH]ccc23)CC1 [Capivasertib] + COc1nnc2ccc(N3CCC(c4ccc(OCCN5CCN(C)C(=O)[C@H]5C)cc4)CC3)nn12 [AZD5153] (first compound max 10 µM, 7x7, partner max 1 µM) | 0.526 | 0.499 | 0.493 | 0.678 | 0.518 | 0.367 | 1 | 1 | 0.591 | 0.317 | 0.399 | 0.477 | 0.882 | 1 | 0.624 | 0.915 | 0.639 | 0.206 | 0.759 | 0.811
4 | NC1(C(=O)N[C@@H](CCO)c2ccc(Cl)cc2)CCN(c2ncnc3[nH]ccc23)CC1 [Capivasertib] + C[C@@H]1COCCN1C2=NC(=NC(=C2)C3(CC3)[S@](=N)(=O)C)C4=C5C=CNC5=NC=C4 [AZD6738] (first compound max 10 µM, 7x7, partner max 10 µM) | 0.461 | 0.746 | 0.515 | 0.558 | 0.667 | 0.68 | 0.927 | 0.962 | 0.707 | 0.324 | 0.429 | 0.481 | 0.82 | 0.917 | 0.872 | 1 | 0.575 | 0.372 | 0.681 | 0.894
5 | NC1(C(=O)N[C@@H](CCO)c2ccc(Cl)cc2)CCN(c2ncnc3[nH]ccc23)CC1 [Capivasertib] + Cn1cnc2c(F)c(Nc3ccc(Br)cc3Cl)c(C(=O)NOCCO)cc21 [Selumetinib] (first compound max 10 µM, 7x7, partner max 10 µM) | 0.317 | 0.657 | 0.268 | 0.778 | 0.434 | 0.539 | 0.489 | 0.924 | 0.664 | 0.374 | 0.426 | 0.42 | 0.767 | 0.847 | 0.333 | 0.507 | 0.575 | 0.431 | 0.902 | 0.332
6 | Cc1nc(Nc2ncc(C(=O)Nc3c(C)cccc3Cl)s2)cc(N2CCN(CCO)CC2)n1 [Dasatinib] + CC(=O)Nc1cccc(-n2c(=O)n(C3CC3)c(=O)c3c(Nc4ccc(I)cc4F)n(C)c(=O)c(C)c32)c1 [Trametinib] (first compound max 2 µM, 7x7, partner max 1 µM) | 0.494 | 0.861 | 0.524 | 0.712 | 0.439 | 0.816 | 0.411 | 0.308 | 0.391 | 0.654 | 0.868 | 0.344 | 0.756 | 0.589 | 0.476 | 0.126 | 0.607 | 0.556 | 0.998 | 0.0279
7 | COc1cccc2c1C(=O)c1c(O)c3c(c(O)c1C2=O)C[C@@](O)(C(=O)CO)C[C@@H]3O[C@H]1C[C@H](N)[C@H](O)[C@H](C)O1 [Doxorubicin] + Cc1cc2ncnn2cc1Nc1ncc2c(n1)n(C1CCOCC1)c(=O)n2C [AZD7648] (first compound max 1 µM, 7x7, partner max 10 µM) | 0.426 | 0.376 | 0.534 | 0.303 | 0.573 | 0.163 | 0.992 | 0.935 | 0.95 | 0.463 | 0.455 | 0.64 | 0.406 | 0.999 | 0.974 | 1 | 0.295 | 0.588 | 0.563 | 0.911
8 | COc1cc2ncnc(Nc3ccc(F)c(Cl)c3)c2cc1OCCCN1CCOCC1 [Gefitinib] + CC(C)n1c(=O)n(C)c2cnc3cc(F)c(-c4ccc(OCCCN5CCCCC5)nc4)cc3c21 [AZD1390] (first compound max 10 µM, 7x7, partner max 0.3 µM) | 0.0817 | 0.117 | 0.215 | 0.275 | 0.194 | 0.227 | 0.333 | 0.293 | 0.119 | 0.202 | 0.285 | 0.147 | 0.168 | 0.42 | 0.0891 | 0.116 | 0.269 | 0.0768 | 0.255 | 0.0984
9 | CS(=O)(=O)CCNCc1ccc(-c2ccc3ncnc(Nc4ccc(OCc5cccc(F)c5)c(Cl)c4)c3c2)o1 [Lapatinib] + C[C@@H](Oc1cc(-c2cnn(C3CCNCC3)c2)cnc1N)c1c(Cl)ccc(F)c1Cl [Crizotinib] (first compound max 10 µM, 7x7, partner max 10 µM) | 0.548 | 0.946 | 0.75 | 0.913 | 0.953 | 0.856 | 1 | 0.59 | 0.559 | 0.489 | 0.946 | 0.525 | 0.966 | 0.951 | 0.899 | 1 | 0.902 | 0.332 | 0.98 | 0.845
10 | CC(=O)c1c(C)c2cnc(Nc3ccc(N4CCNCC4)cn3)nc2n(C2CCCC2)c1=O [Palbociclib] + CC1(C)CCC(CN2CCN(c3ccc(C(=O)NS(=O)(=O)c4ccc(NCC5CCOCC5)c([N+](=O)[O-])c4)c(Oc4cnc5[nH]ccc5c4)c3)CC2)=C(c2ccc(Cl)cc2)C1 [Venetoclax] (first compound max 10 µM, 7x7, partner max 1 µM) | 0.0774 | 0.559 | 0.173 | 0.0364 | 0.232 | 0.079 | 0.66 | 0.348 | 0.223 | 0.0755 | 0.0941 | 0.237 | 0.398 | 0.823 | 0.465 | 0.738 | 0.134 | 0.114 | 0.431 | 0.106
11 | CC(=O)c1c(C)c2cnc(Nc3ccc(N4CCNCC4)cn3)nc2n(C2CCCC2)c1=O [Palbociclib] + Cc1c2c(nn1C)CSCc1cc(n(C)n1)CSc1cc(c3ccccc3c1)OCCCc1c(C(=O)O)n(C)c3c-2c(Cl)ccc13 [AZD5991] (first compound max 10 µM, 7x7, partner max 1 µM) | 0.167 | 0.686 | 0.277 | 0.202 | 0.412 | 0.119 | 1 | 0.621 | 0.328 | 0.306 | 0.301 | 0.413 | 0.621 | 1 | 0.575 | 1 | 0.349 | 0.169 | 0.675 | 0.264
12 | CC(=O)c1c(C)c2cnc(Nc3ccc(N4CCNCC4)cn3)nc2n(C2CCCC2)c1=O [Palbociclib] + Cn1cnc2c(F)c(Nc3ccc(Br)cc3Cl)c(C(=O)NOCCO)cc21 [Selumetinib] (first compound max 10 µM, 7x7, partner max 10 µM) | 0.185 | 0.817 | 0.344 | 0.377 | 0.349 | 0.33 | 0.699 | 0.379 | 0.354 | 0.281 | 0.414 | 0.265 | 0.654 | 0.669 | 0.371 | 0.88 | 0.306 | 0.338 | 0.813 | 0.14
13 | COc1cccc(OCCCN)c1-c1cc(Nc2cnc(C#N)cn2)n[nH]1 [Prexasertib] + C=CCn1c(=O)c2cnc(Nc3ccc(N4CCN(C)CC4)cc3)nc2n1-c1cccc(C(C)(C)O)n1 [AZD1775] (first compound max 1 µM, partner max 1 µM) | 0.885 | 0.835 | 0.569 | 0.665 | 0.603 | 0.861 | 1 | 1 | 0.497 | 0.64 | 0.76 | 0.704 | 0.784 | 1 | 0.939 | 1 | 0.65 | 0.331 | 0.881 | 1
